Data as given in patent US10703748B2, “Diazanaphthalen-3-yl carboxamides and preparation and use thereof” (Samumed, LLC, priority 2017, dated 2020).
Like-named read-outs stand apart in the source and are kept apart here.

Assays:
[1] = target: DYRK1A kinase (Homo sapiens, UniProt Q13627); test: DYRK1A kinase activity (Ser/Thr 18 peptide Z-lyte FRET assay); format: biochemical; details: recombinant DYRK1A, 30 μM ATP, one hour at room temperature;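 note: kinase activity read as coumarin/fluorescein emission ratio after development step, with unphosphorylated and phosphorylated peptide forms setting 0% and 100% controls, values from dose-response curves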
[2] = target: GSK3β kinase (Homo sapiens, UniProt P49841); test: GSK3β kinase activity (Ser/Thr 09 peptide Z-lyte FRET assay); format: biochemical; details: recombinant kinase, 46 μM ATP, one hour at room temperature; read-out: EC50
[3] = tested on: Tau phosphorylation at Ser396 (pSer396); test: Tau phosphorylation at Ser396 (pSer396) in SH-SY5Y cells, ELISA / western blot; format: cell-based, human; details: SH-SY5Y cells, overnight (16-18 h), read-out: pSer396 Tau EC50;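 note: decrease in pSer396 Tau measured in lysates of treated cells by colorimetric ELISA or chemiluminescent western blot, same pSer396 antibody for both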
Procedure: Two days before treatment, cells were seeded onto 96 well plates at 5×10^4 cells/well.
The above synthesized compounds were screened using the cell assay procedure to assess decrease Tau phosphorylation at Ser396 (pSer396) described below.
Cells were lysed with RIPA buffer complemented with phosphatase and protease inhibitors then lysates were spun down at 12,000 g for 10 min to remove any cellular debris.

[4] = tested on: secreted cytokines TNFα, IL-6 and KC-GRO; test: Secreted cytokines in Lipopolysaccharide-stimulated BV-2 cells (Table 9 does not say which cytokine); format: cell-based, mouse; details: read-out: EC50
[5] = tested on: SW480 colon carcinoma cells; test: Cell viability assay (CellTiter-Glo); details: for inhibition at 10 µM: SW480, read-out: percent inhibition at 10 μM
[6] = tested on: Wnt-responsive Sp5-Luc reporter in SW480 colon carcinoma cells; test: Screening assay for Wnt activity (Sp5-Luc reporter gene assay); details: for inhibition at 10 µM: SW480, read-out: percent inhibition at 10 μM
[7] = tested on: IL-6; test: IL-6 inhibition in LPS-stimulated human peripheral blood mononuclear cells (HTRF); details: for inhibition at 10 µM: read-out: percentage in parentheses after EC50 >10
[8] = tested on: α-smooth muscle actin (aSMA) positive LL29 cells; test: Inhibition of the fibrotic process: αSMA staining in TGF-β1 treated LL29 fibroblasts from IPF patients; details: for inhibition at 10 µM: read-out: percentage in parentheses after EC50 >10

GSK3β kinase, sequence (P49841 whole entry): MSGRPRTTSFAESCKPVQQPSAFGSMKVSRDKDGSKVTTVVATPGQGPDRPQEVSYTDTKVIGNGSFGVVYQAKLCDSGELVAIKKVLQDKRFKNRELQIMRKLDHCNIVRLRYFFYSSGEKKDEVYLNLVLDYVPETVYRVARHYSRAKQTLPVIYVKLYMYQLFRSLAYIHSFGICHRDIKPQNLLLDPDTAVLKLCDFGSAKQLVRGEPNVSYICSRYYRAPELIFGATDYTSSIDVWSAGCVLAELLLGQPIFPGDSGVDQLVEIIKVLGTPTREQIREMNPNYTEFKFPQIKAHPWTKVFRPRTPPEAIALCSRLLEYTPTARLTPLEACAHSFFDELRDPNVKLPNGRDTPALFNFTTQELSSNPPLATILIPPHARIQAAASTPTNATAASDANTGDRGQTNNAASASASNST

SMILES	EC50 [1] [µM]	EC50 [2] [µM]	EC50 ([3]; Homo sapiens) [µM]	EC50 ([4]; Mus musculus, BV-2, 5 h) [µM]	EC50 ([5]; Homo sapiens, SW480, 96 h) [µM]	EC50 ([6]; Homo sapiens, SW480) [µM]	EC50 ([7]; Homo sapiens, PBMC, 22 h) [µM]	EC50 [3] [µM]	EC50 ([4]; BV-2 cells, LPS 250 ng/mL 5 hours, compounds overnight, 10 μM to […], cytokine not named in Table 9) [µM]	EC50 ([5]; SW480 cells, four days, CellTiter-Glo) [µM]	EC50 ([6]; SW480 Sp5-Luc reporter cells, 36 to 48 hours) [µM]	EC50 ([7]; huPBMCs, LPS 50 ng/mL, 22 hours, curves starting from 10 μM) [µM]	percentage in parentheses after EC50 >10 ([7]; huPBMCs, LPS, given beside >10 μM, meaning not given) [%]	EC50 ([8]; Homo sapiens, Fibroblast, 96 h) [µM]	inhibition at 10 µM ([5]; Homo sapiens) [%]	inhibition at 10 µM ([6]; Homo sapiens) [%]	inhibition at 10 µM ([8]; Homo sapiens, Fibroblast) [%]	inhibition at 10 µM ([7]; Homo sapiens, PBMC) [%]	percent inhibition at 10 μM ([6]; at 10 μM, given for EC50 of >10 μM, SW480 Sp5-Luc reporter) [%]	EC50 ([8]; LL29 fibroblasts from IPF patients, TGF-β1 20 ng/mL, 4 days, curves from 10 μM to 0.94 nM) [µM]
Cn1cc(-c2ccc3cnc(NC(=O)[C@H]4CC[C@H](N5CCOCC5)CC4)cc3n2)cn1 [Compound 5, trans-N-(2-(1-methyl-1H-pyrazol-4-yl)-1,6-naphthyridin-7-yl)-4-morpholinocyclohexane-1-carboxamide]	0.007	0.138	2	0.4	> 10	> 10	3.3	–	–	–	–	–	–	> 10	39.9	47.9	9	–	–	–
CN(CC(=O)Nc1cc2nc(-c3cnn(C)c3)ccc2cn1)C1CCC1 [Compound 56, 2-(Cyclobutyl(methyl)amino)-N-(2-(1-methyl-1H-pyrazol-4-yl)-1,6-naphthyridin-7-yl)acetamide]	0.021	0.059	1.5	1.14	> 10	3.39	> 10	–	–	–	–	–	–	5.18	35	–	–	6.3	–	–
Cn1cc(-c2ccc3cnc(NC(=O)[C@H]4CCCN4)cc3n2)cn1 [Compound 62, (R)—N-(2-(1-Methyl-1H-pyrazol-4-yl)-1,6-naphthyridin-7-yl)pyrrolidine-2-carboxamide]	0.056	0.009	0.699	0.557	> 10	> 10	4.83	–	–	–	–	–	–	> 10	38.3	43.1	8.3	–	–	–
O=C(Nc1cc2nc(-c3cnn4c3CN(CCF)CC4)ccc2cn1)C1CCC(F)(F)CC1 [Compound 317]	–	–	–	–	–	–	–	0.035	0.066	3.53	> 10	> 10	8.0	–	–	–	–	–	50.0	0.935
CC(C)OCCC(=O)Nc1ncc2ccc(-c3cncn3C)cc2n1 [Compound 1322, 3-Isopropoxy-N-(7-(1-methyl-1H-imidazol-5-yl)quinazolin-2-yl)propanamide]	0.052	0.094	0.168	–	> 10	1.17	> 10	–	–	–	–	–	–	2	22.2	–	–	5.9	–	–
CCN(CC)CC(=O)Nc1cc2cc(-c3cnn(C)c3CN3CCCCC3)ncc2cn1 [Compound 3910, 2-(Diethylamino)-N-(6-(1-methyl-5-(piperidin-1-ylmethyl)-1H-pyrazol-4-yl)-2,7-naphthyridin-3-yl)acetamide]	0.059	0.115	0.989	–	3.54	1.24	> 10	–	–	–	–	–	–	1.07	–	–	–	4.2	–	–
Cn1ncc(-c2cc3cc(NC(=O)c4ccnc(N5CCOCC5)c4)ncc3cn2)c1CN1CCOCC1 [Compound 3941, N-(6-(1-methyl-5-(morpholinomethyl)-1H-pyrazol-4-yl)-2,7-naphthyridin-3-yl)-2-morpholinoisonicotinamide]	0.006	0.079	0.571	–	2.38	1.34	> 10	–	–	–	–	–	–	1.19	–	–	–	5.5	–	–
Cn1cc(-c2ccc3cnc(NC(=O)c4ccc(OC5CCNCC5)cc4)nc3c2)nn1 [Compound 4573, N-(7-(1-Methyl-1H-1,2,3-triazol-4-yl)quinazolin-2-yl)-4-(piperidin-4-yloxy) benzamide]	0.006	0.161	10	–	2.7	3.23	> 10	–	–	–	–	–	–	> 10	–	–	9.3	9.6	–	–

Second part, led by results:

EC50 [1] [µM]	EC50 [2] [µM]	EC50 ([3]; Homo sapiens) [µM]	EC50 ([4]; Mus musculus, BV-2, 5 h) [µM]	EC50 ([5]; Homo sapiens, SW480, 96 h) [µM]	EC50 ([6]; Homo sapiens, SW480) [µM]	EC50 ([7]; Homo sapiens, PBMC, 22 h) [µM]	EC50 [3] [µM]	EC50 ([4]; BV-2 cells, LPS 250 ng/mL 5 hours, compounds overnight, 10 μM to […], cytokine not named in Table 9) [µM]	EC50 ([5]; SW480 cells, four days, CellTiter-Glo) [µM]	EC50 ([6]; SW480 Sp5-Luc reporter cells, 36 to 48 hours) [µM]	EC50 ([7]; huPBMCs, LPS 50 ng/mL, 22 hours, curves starting from 10 μM) [µM]	percentage in parentheses after EC50 >10 ([7]; huPBMCs, LPS, given beside >10 μM, meaning not given) [%]	SMILES	EC50 ([8]; Homo sapiens, Fibroblast, 96 h) [µM]	inhibition at 10 µM ([5]; Homo sapiens) [%]	inhibition at 10 µM ([6]; Homo sapiens) [%]	inhibition at 10 µM ([8]; Homo sapiens, Fibroblast) [%]	inhibition at 10 µM ([7]; Homo sapiens, PBMC) [%]	percent inhibition at 10 μM ([6]; at 10 μM, given for EC50 of >10 μM, SW480 Sp5-Luc reporter) [%]	EC50 ([8]; LL29 fibroblasts from IPF patients, TGF-β1 20 ng/mL, 4 days, curves from 10 μM to 0.94 nM) [µM]
0.018	0.02	0.396	1.7	2.47	2.94	3.16	–	–	–	–	–	–	Cn1cc(-c2ccc3cnc(NC(=O)C4CC4)cc3n2)cn1 [Compound 2, N-(2-(1-Methyl-1H-pyrazol-4-yl)-1,6-naphthyridin-7-yl) cyclopropanecarboxamide]	0.677	–	–	–	–	–	–
0.014	0.101	3.5	0.926	5.8	3.19	2.83	–	–	–	–	–	–	Cn1cc(-c2ccc3cnc(NC(=O)C4CCNCC4)cc3n2)cn1 [Compound 11, N-(2-(1-Methyl-1H-pyrazol-4-yl)-1,6-naphthyridin-7-yl)piperidine-4-carboxamide]	2.54	–	–	–	–	–	–
0.04	0.277	0.923	0.111	> 10	1.54	> 10	–	–	–	–	–	–	CC(C)CN1CCC(C(=O)Nc2cc3nc(-c4cnn(C)c4)ccc3cn2)CC1 [Compound 16, 1-Isobutyl-N-(2-(1-methyl-1H-pyrazol-4-yl)-1,6-naphthyridin-7-yl) piperidine-4-carboxamide]	0.251	45.1	–	–	52.2	–	–
0.01	0.429	> 10	0.408	> 10	1.31	2.77	–	–	–	–	–	–	Cn1cc(-c2ccc3cnc(NC(=O)[C@H]4CC[C@H](N)CC4)cc3n2)cn1 [Compound 41, trans-4-amino-N-(2-(1-methyl-1H-pyrazol-4-yl)-1,6-naphthyridin-7-yl)cyclohexane-1-carboxamide]	0.663	31.8	–	–	–	–	–
0.005	0.098	10	–	> 10	> 10	> 10	–	–	–	–	–	–	O=C(Nc1ncc2ccc(-c3cncc(NCC4(F)CNC4)n3)cc2n1)C1CC1 [Compound 1777, N-(7-(6-(((3-Fluoroazetidin-3-yl)methyl)amino)pyrazin-2-yl)quinazolin-2-yl)cyclopropanecarboxamide]	> 10	27.6	35.4	41.1	2.4	–	–
0.007	0.135	5.66	–	> 10	4.27	> 10	–	–	–	–	–	–	O=C(Nc1ncc2ccc(-c3cncc(N[C@H]4CCNC[C@@H]4F)n3)cc2n1)C1CC1 [Compound 1785, N-(7-(6-(((3S,4S)-3-Fluoropiperidin-4-yl)amino)pyrazin-2-yl)quinazolin-2-yl)cyclopropanecarboxamide]	4	34.3	–	–	8.9	–	–
0.01	0.006	0.087	–	3.61	0.092	8.8	–	–	–	–	–	–	CC(C)CN1CCC(CC(=O)Nc2cc3cc(-c4cnn(C)c4)ncc3cn2)C1 (stereo not drawn) [Compound 3749, 2-(1-Isobutylpyrrolidin-3-yl)-N-(6-(1-methyl-1H-pyrazol-4-yl)-2,7-naphthyridin-3-yl)acetamide]	0.167	–	–	–	–	–	–
0.016	0.275	> 10	–	2.26	1.53	> 10	–	–	–	–	–	–	Cn1cc(-c2cc3cc(NC(=O)c4ccnc(OC5CCNCC5)c4)ncc3cn2)cn1 [Compound 3780, N-(6-(1-Methyl-1H-pyrazol-4-yl)-2,7-naphthyridin-3-yl)-2-(piperidin-4-yloxy)isonicotinamide]	4.76	–	–	–	6.7	–	–
0.037	0.135	1.54	–	> 10	> 10	> 10	–	–	–	–	–	–	Cc1nnc(-c2cc3cc(NC(=O)C4CCN(C(=O)c5ccccc5)CC4)ncc3cn2)s1 [Compound 4346, 1-Benzoyl-N-(6-(5-methyl-1,3,4-thiadiazol-2-yl)-2,7-naphthyridin-3-yl) piperidine-4-carboxamide]	> 10	12.2	3.8	21.4	2.4	–	–
0.002	0.001	0.037	–	0.799	0.383	3.09	–	–	–	–	–	–	O=C(Nc1cc2cc(-c3cncc(NCC4(F)CNC4)n3)ncc2cn1)C1CC1 [Compound 4498, N-(6-(6-(((3-Fluoroazetidin-3-yl)methyl)amino)pyrazin-2-yl)-2,7-naphthyridin-3-yl)cyclopropanecarboxamide]	0.436	–	–	–	–	–	–
